Results on 27 compounds are retold here after patent US20160045505A1, “COMPOUNDS AND COMPOSITIONS FOR THE TREATMENT OF PARASITIC DISEASES” (NOVARTIS AG, priority 2013, published 2016).

Like-named read-outs stand apart in the source and are kept apart here.

Assay [1] has as its system Trypanosoma brucei Lister 427 strain, bloodstream form. Kind of assay: Assay for proliferation of kinetoplastid parasite Trypanosoma brucei (Cell Titer Glo, 48 hours). It counts as cell-based. Particulars: Trypanosoma brucei, T. brucei Lister 427 bloodstream form, read-out: T. brucei EC50. In short, it runs like this:
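Bloodstream-form T. brucei Lister 427 in HMI-9 medium was exposed to compound (DMSO vehicle) for 48 hours at 37° C, 5% CO2. Parasite growth was read as ATP by CellTiter-Glo luminescence, with EC50 calculated from percent inhibition.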

For assay [2], the system named is L. donovani HU3 strain in mouse peritoneal macrophages. In words: Assay for proliferation of Leishmania parasites in infected mouse peritoneal macrophages (SybrGreen staining, high-content imaging, 5 days). It counts as cell-based, Leishmania donovani. Particulars: Leishmania donovani, Peritoneal macrophage, L. donovani in mouse peritoneal macrophages, read-out: L. donovani Macrophage EC50.

The test system of assay [3] is Trypanosoma cruzi amastigotes (Tulahuen strain expressing Lac-Z) cultured in 3T3 fibroblast cells. Kind of assay: microbe, parasite or virus in culture. The class given is cell-based. The settings on record: Trypanosoma cruzi, TULAHUEN, Fibroblast, T. cruzi amastigotes in 3T3 fibroblast cells, read-out: T cruzi EC50.
In assay [4] the test system is Leishmania donovani axenic amastigote parasites. Kind of assay: Leishmania donovani axenic amastigote proliferation assay (Cell TiterGlo luminescence, 2 day incubation). The class given is cell-based. Particulars: Leishmania donovani, read-out: L. donovani amastigotes EC50.
[5] abbreviates: axenic amastigotes, inhibition of proliferation.

Regarding `CCN(C)C(=O)Nc1ccc(F)c(-c2cn3cc(-c4ccccc4)cnc3n2)c1` [Compound 327], the EC50 in assay [1] (inhibition of proliferation) is 0.102 µM; in assay [2] (inhibition of proliferation), 0.459 µM; in assay [3] (inhibition of proliferation), 0.05 µM; in assay [4] (setting [5]) it was 0.167 µM.
As to `CC(C)c1cnc2nc(-c3cc(NC(=O)N4CC(F)C4)ccc3F)cn2c1` [Compound 415], the concentration for a half-maximal effect (EC50) in assay [1] amounted to 0.012 µM; in assay [2], 0.114 µM; in assay [3] it was 0.044 µM; in assay [4] (L. donovani axenic amastigotes) it was 0.028 µM.
Consider `CCOC(=O)Nc1cnc2nc(-c3cc(NC(=O)c4oc(C)nc4C)ccc3F)cn2c1` [Compound 305], for which the EC50 in assay [1] (inhibition of proliferation) was 0.163 µM; in assay [2] (inhibition of proliferation), 0.269 µM; in assay [3] (inhibition of proliferation), 0.499 µM; in assay [4] (setting [5]), 0.112 µM.
As for `CC(=O)c1ccc(C(=O)Nc2ccc(F)c(-c3cn4cc(NC(=O)OC(C)C)cnc4n3)c2)s1` [Compound 83], the EC50 in assay [1] (inhibition of proliferation) was over 50 µM; in assay [2] (inhibition of proliferation) it was 6.81 µM; in assay [3] (inhibition of proliferation), 7.04 µM; in assay [4] (setting [5]), 15.5 µM.
The corresponding values for `CC(C)OC(=O)Nc1cnc2nc(-c3cc(NC(=O)C4CC(=O)C4)ccc3F)cn2c1` [Compound 101] are 3.49 µM, 2.52 µM, 9.95 µM and 0.636 µM.
Regarding `Cc1nc(C)c(C(=O)Nc2ccc(F)c(-c3cn4cc(-c5ncccc5F)cnc4n3)c2)o1` [Compound 449], the EC50 is 0.056 µM in assay [1], 0.054 µM in assay [2], 0.022 µM in assay [3] and 0.028 µM in assay [4] (L. donovani axenic amastigotes).
As to `Cc1cccc(-c2cnc3nc(-c4cc(NC(=O)N5CCCC5)ccc4F)cn3c2)n1` [Compound 455, N-(4-fluoro-3-(6-(6-methylpyridin-2-yl)imidazo[1,2-a]pyrimidin-2-yl)phenyl)pyrrolidine-1-carboxamide], the EC50 in assay [1] stood at 0.134 µM; in assay [2] it was 0.681 µM; in assay [3], 0.215 µM; in assay [4] (L. donovani axenic amastigotes), 0.225 µM.
Regarding `Cc1nc(C)c(C(=O)Nc2ccc(F)c(-c3cn4cc(C5=CCCCO5)cnc4n3)c2)o1` [Compound 373], the EC50 is 0.044 µM in assay [1], 0.134 µM in assay [2], 0.084 µM in assay [3] and 0.115 µM in assay [4] (L. donovani axenic amastigotes).
Consider `O=C(Nc1ccc(F)c(-c2cn3cc(-c4ccccc4)cnc3n2)c1)N1CC[C@@H](F)C1` [Compound 409], for which the EC50 was 0.004 µM in assay [1], 0.061 µM in assay [2], 0.005 µM in assay [3] and 0.019 µM in assay [4] (L. donovani axenic amastigotes).
`Cc1ncc(C(=O)Nc2cnc3nc(-c4cc(NC(=O)N5CCCC5)ccc4F)cn3c2)o1` [Compound 132]: the EC50 in assay [1] (inhibition of proliferation) was 1.55 µM; in assay [2] (inhibition of proliferation), over 50 µM; in assay [3] (inhibition of proliferation), over 13.8 µM; in assay [4] (setting [5]) it was 2.87 µM.
Regarding `CC(C)c1cnc2nc(-c3cc(NC(=O)N4CC(F)(F)C4)ccc3F)cn2c1` [Compound 416], the EC50 was 0.041 µM in assay [1], 0.093 µM in assay [2], 0.047 µM in assay [3] and 0.03 µM in assay [4] (L. donovani axenic amastigotes).
Take `Cc1nc(C)c(C(=O)Nc2ccc(F)c(-c3cn4cc(NC(=O)C5(C)CCCCO5)cnc4n3)c2)o1` (stereo not drawn) [Compound 170]: the EC50 in assay [1] (inhibition of proliferation) was found to be 0.518 µM; in assay [2] (inhibition of proliferation), 0.887 µM; in assay [3] (inhibition of proliferation), 1.16 µM; in assay [4] (setting [5]), 0.428 µM.
For the compound `CC(C)(C)OC(=O)N1CCOC(C(=O)Nc2ccc(F)c(-c3cn4cc(C5CC5)cnc4n3)c2)C1` (stereo not drawn) [Compound 602], the EC50 in assay [1] was over 50 µM; in assay [2] it was over 50 µM; in assay [3], 13.6 µM; in assay [4] (L. donovani axenic amastigotes), over 25 µM.
`CC(C)CNC(=O)Nc1ccc(Cl)c(-c2cn3cc(NC(=O)OC(C)C)cnc3n2)c1` [Compound 263]: the EC50 came to 1.1 µM in assay [1] (inhibition of proliferation), 3.53 µM in assay [2] (inhibition of proliferation), 1.32 µM in assay [3] (inhibition of proliferation) and 1.74 µM in assay [4] (setting [5]).
In the case of `CC(C)OC(=O)Nc1cnc2nc(-c3cc(NC4=NCCO4)ccc3F)cn2c1` [Compound 499], the EC50 in assay [1] is 4.67 µM; in assay [2], 8.26 µM; in assay [3], 9.42 µM; in assay [4] (L. donovani axenic amastigotes) it was over 25 µM.
As for `Cc1nc(C)c(C(=O)Nc2ccc(F)c(-c3cn4cc(NC(=O)[C@@H]5CCCO5)cnc4n3)c2)o1` [Compound 161], the EC50 in assay [1] (inhibition of proliferation) turned out to be 0.17 µM; in assay [2] (inhibition of proliferation), 0.655 µM; in assay [3] (inhibition of proliferation), 2.54 µM; in assay [4] (setting [5]), 0.206 µM.
`Cc1nc(C)c(C(=O)Nc2ccc(F)c(-c3cn4cc(-c5ccnn5C)cnc4n3)c2)o1` [Compound 393]: the EC50 in assay [1] was 0.11 µM; in assay [2], 0.183 µM; in assay [3], 0.149 µM; in assay [4] (L. donovani axenic amastigotes), 0.147 µM.
As to `CC(C)OC(=O)Nc1cnc2nc(-c3cc(NC(=O)c4cnc(C5CC5)o4)ccc3Cl)cn2c1` [Compound 60], the half-maximal effective concentration (EC50) in assay [1] (inhibition of proliferation) worked out at 1.54 µM; in assay [2] (inhibition of proliferation), 1.1 µM; in assay [3] (inhibition of proliferation), 0.444 µM; in assay [4] (setting [5]) it was 0.727 µM.
As for `Cc1ncc(C(=O)Nc2ccc(F)c(-c3cn4cc(C5CCOCC5)cnc4n3)c2)o1` [Compound 424], the EC50 in assay [1] turned out to be 0.054 µM; in assay [2], 0.164 µM; in assay [3], 0.118 µM; in assay [4] (L. donovani axenic amastigotes), 0.056 µM.
For the compound `CC(C)OC(=O)Nc1cnc2nc(-c3cc(NC(N)=O)ccc3Cl)cn2c1` [Compound 252], the 50% effective concentration (EC50) was 33 µM in assay [1] (inhibition of proliferation), over 50 µM in assay [2] (inhibition of proliferation), over 20 µM in assay [3] (inhibition of proliferation) and over 25 µM in assay [4] (setting [5]).
In the case of `O=C(Nc1ccc(F)c(-c2cn3cc(-c4ccccn4)cnc3n2)c1)N1CC[C@@H](F)C1` [Compound 407], the EC50 is 0.004 µM in assay [1], 0.014 µM in assay [2], 0.014 µM in assay [3] and 0.009 µM in assay [4] (L. donovani axenic amastigotes).
As for `Cc1nc(C)c(C(=O)Nc2ccc(F)c(-c3cn4cc(NC(=O)C5(C)CCC5)cnc4n3)c2)o1` [Compound 114], the EC50 in assay [1] (inhibition of proliferation) is 0.105 µM; in assay [2] (inhibition of proliferation), 0.266 µM; in assay [3] (inhibition of proliferation), 1.07 µM; in assay [4] (setting [5]), 0.143 µM.
For the compound `O=C(Nc1ccc(F)c(-c2cn3cc(-c4ccccc4)cnc3n2)c1)N1CC(F)C1` [Compound 317, 3-fluoro-N-(4-fluoro-3-(6-phenylimidazo[1,2-a]pyrimidin-2-yl)phenyl)azetidine-1-carboxamide], the EC50 in assay [1] (inhibition of proliferation) is 0.012 µM; in assay [2] (inhibition of proliferation) it was 0.038 µM; in assay [3] (inhibition of proliferation), 0.012 µM; in assay [4] (setting [5]) it was 0.014 µM.
As to `CC(C)OC(=O)Nc1cnc2nc(-c3cc(NC(=O)N(C)CC(F)(F)F)ccc3Cl)cn2c1` [Compound 255], the EC50 in assay [1] (inhibition of proliferation) was 0.122 µM; in assay [2] (inhibition of proliferation), 0.502 µM; in assay [3] (inhibition of proliferation), 0.329 µM; in assay [4] (setting [5]), 0.364 µM.
Regarding `Cc1ncc(C(=O)Nc2ccc(F)c(-c3cn4cc(C(F)(F)F)cnc4n3)c2)o1` [Compound 201], the EC50 in assay [1] (inhibition of proliferation) is 0.46 µM; in assay [2] (inhibition of proliferation), 0.208 µM; in assay [3] (inhibition of proliferation) it was 0.126 µM; in assay [4] (setting [5]), 0.058 µM.
For the compound `CC(C)OC(=O)Nc1cnc2nc(-c3cc(NC(=O)C4CCC4)ccc3F)cn2c1` [Compound 102], the EC50 in assay [1] (inhibition of proliferation) amounted to 0.492 µM; in assay [2] (inhibition of proliferation) it was 1.71 µM; in assay [3] (inhibition of proliferation) it was 0.464 µM; in assay [4] (setting [5]) it was 0.54 µM.
With `Cc1nc(C)c(C(=O)Nc2ccc(F)c(-c3cn4cc(NC(=O)[C@H]5[C@@H](N)[C@@H]6C=C[C@H]5C6)cnc4n3)c2)o1` [Compound 181], the EC50 is 12.7 µM in assay [1] (inhibition of proliferation), 33.1 µM in assay [2] (inhibition of proliferation), over 20 µM in assay [3] (inhibition of proliferation) and over 25 µM in assay [4] (setting [5]).
